What was measured:
in vivo = settings: NOD SCID γ (NSG), mouse
Method: A Zorbax Eclipse XDB-C18 column (4.6 × 250 mm^2, 5 μm, Agilent Technologies) was used to achieve chromatographic separation of the analytes. An isocratic chromatographic system was used. The mobile phase was water:acetonitrile (35:65, v/v) with 0.1% formic acid at a flow rate of 0.25 mL/min. The injection volume of the sample was 10 μL. The triple quadrupole mass spectrometer was operated in positive electrospray ionization mode. The spray voltage was +3000 V, and the vaporizer temperature was 280 °C. The pressure of the collision gas was 1.0 mTorr.

H1975 cells [1] = system: H1975 cells
H820 cells [2] = settings: H820, gefitinib 5 μM alone, 48 h
H820 cells [3] = system: H820 cells
A549 cells = settings: A549, gefitinib 5 μM alone, 48 h
Method: At least 10,000 events were acquired using a LSRFortessa cell analyzer, and the flow cytometric data were analyzed using BD FACSDiva software (BD Biosciences). Apoptotic cells were defined as the ones stained positive for both Annexin V-FITC and 7-AAD.

H1975 cells [4] = settings: H1975, gefitinib 5 μM alone, 48 h
ABCB1 = ABCB1 (Homo sapiens, UniProt P08183); assay: ABC transporter-mediated drug efflux assay, ABCB1 (rhodamine 123); settings: PSC833 1 μM, control ABCB1 inhibitor, HEK293/ABCB1
Method: (§1) Specific inhibitors for ABCB1 (PSC833) and ABCG2 (FTC) were used as a control for comparison. Cells were analyzed by using a LSRFortessa cell analyzer (BD Biosciences). […] At least 10,000 events were collected for quantitative analysis.

[5] = system: histone H3 acetylation (Lys 9,14) (AcH3); assay: Western blot of histone H3 acetylation (AcH3) in H1975 cells; type: cell-based, human; settings: 10 μM, 24 h (Figure 1A,B)
Method: An increase of histone acetylation is a well-characterized hallmark of HDAC inhibition. […] After the cancer cells were treated with the designated drug candidates, they were harvested in lysis buffer (0.05 M HEPES, 0.15 M NaCl, 2 mM EDTA, 10% v/v glycerol, and 1% v/v Triton X-100, pH 7.4) supplemented with protease and phosphatase inhibitors. Sodium dodecyl sulfate poly(acrylamide) gel electrophoresis (SDS-PAGE) was used to separate the different proteins in the whole cell lysates, which were then transferred to a poly(vinylidene difluoride) membrane for immunoblot analysis using different specific antibodies (acetylated histone H3, acetylated α-tubulin, histone H3, or GAPDH; Cell Signaling Technology). The bands corresponding to specific proteins of interest were visualized by using the WesternBright ECL HRP substrate (Advansta, San Jose, California). A chemiluminescent Western blot signal was detected and analyzed using a ChemiDoc MP system (Bio-Rad Laboratories, Hercules, California).

Bim (BCL2L11) = assay: Real-time PCR of Bim expression in H1975; type: cell-based, human; settings: H1975, 24 h, flunarizine 2.5, 5, or 10 μM or SAHA 0.25, 0.5, or 1 μM; all concentrations tested
Method: (§2) Reverse transcription was performed using 1 μg of total RNA sample with the PrimeScript First Strand cDNA Synthesis Kit (TaKaRa Biomedical Technology) at 37 °C for 10 min. The cDNA was then amplified by real-time PCR to determine the relative expression of p27^Kip1 and BIM using the KAPA SYBR FAST qPCR kit (KapaBiosystems, Wilmington, Massachusetts) with a LightCycler 480 Instrument I instrument (Roche Applied Science, Indianapolis, Indiana). The house-keeping gene GAPDH was also measured for normalization. Specific primer sequences used in the PCR reactions are p27^Kip1, forward 5′-[…]-3′ and reverse 5′-[…]-3′; Bim, forward 5′-[…]-3′ and reverse 5′-[…]-3′; and GAPDH, forward 5′-[…]-3′ and reverse 5′-[…]-3′. The PCR temperature program was set at 95 °C for 5 min, followed by 35 cycles of 95 °C for 10 s and 60 °C for 10 s. The fluorescent signal was detected at the end of the PCR elongation step of every cycle to keep track of the amount of amplified DNA. ΔCt was calculated by subtracting the Ct of GAPDH from the Ct of Bim or p27^Kip1. Fold change in gene expression was analyzed by the 2^–ΔΔCt method.

[6] = cited from earlier work
p27^Kip1 (CDKN1B) = assay: Real-time PCR of p27^Kip1 expression in H1975; type: cell-based, human; settings: H1975, 24 h, flunarizine 2.5, 5, or 10 μM or SAHA 0.25, 0.5, or 1 μM; all concentrations tested
Method: as §2

ABCG2 = molecular target: T1, ABCG2 (Homo sapiens, UniProt Q9UNQ0); assay: ABC transporter-mediated drug efflux assay, ABCG2 (pheophorbide A); settings: FTC 1 μM, control ABCG2 inhibitor, HEK293/ABCG2
T1 sequence (Q9UNQ0 1-655): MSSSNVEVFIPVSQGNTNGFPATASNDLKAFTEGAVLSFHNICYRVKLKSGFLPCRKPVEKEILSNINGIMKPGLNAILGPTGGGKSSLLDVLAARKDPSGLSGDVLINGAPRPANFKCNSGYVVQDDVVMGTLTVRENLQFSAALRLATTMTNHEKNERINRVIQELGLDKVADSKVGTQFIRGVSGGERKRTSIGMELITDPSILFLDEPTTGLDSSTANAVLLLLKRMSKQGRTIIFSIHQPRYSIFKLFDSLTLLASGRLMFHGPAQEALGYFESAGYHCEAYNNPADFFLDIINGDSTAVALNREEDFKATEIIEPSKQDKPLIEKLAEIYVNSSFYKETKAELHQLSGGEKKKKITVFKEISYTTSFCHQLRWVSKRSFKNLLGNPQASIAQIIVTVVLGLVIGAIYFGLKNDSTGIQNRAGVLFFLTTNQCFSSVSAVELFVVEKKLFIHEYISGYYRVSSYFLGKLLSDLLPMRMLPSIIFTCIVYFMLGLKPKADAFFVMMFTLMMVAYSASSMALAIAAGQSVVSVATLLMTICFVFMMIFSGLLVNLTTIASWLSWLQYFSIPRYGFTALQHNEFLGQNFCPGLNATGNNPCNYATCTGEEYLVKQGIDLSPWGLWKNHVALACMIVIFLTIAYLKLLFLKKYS
Method: as §1

ABCB1, sequence (P08183 whole entry, species assumed): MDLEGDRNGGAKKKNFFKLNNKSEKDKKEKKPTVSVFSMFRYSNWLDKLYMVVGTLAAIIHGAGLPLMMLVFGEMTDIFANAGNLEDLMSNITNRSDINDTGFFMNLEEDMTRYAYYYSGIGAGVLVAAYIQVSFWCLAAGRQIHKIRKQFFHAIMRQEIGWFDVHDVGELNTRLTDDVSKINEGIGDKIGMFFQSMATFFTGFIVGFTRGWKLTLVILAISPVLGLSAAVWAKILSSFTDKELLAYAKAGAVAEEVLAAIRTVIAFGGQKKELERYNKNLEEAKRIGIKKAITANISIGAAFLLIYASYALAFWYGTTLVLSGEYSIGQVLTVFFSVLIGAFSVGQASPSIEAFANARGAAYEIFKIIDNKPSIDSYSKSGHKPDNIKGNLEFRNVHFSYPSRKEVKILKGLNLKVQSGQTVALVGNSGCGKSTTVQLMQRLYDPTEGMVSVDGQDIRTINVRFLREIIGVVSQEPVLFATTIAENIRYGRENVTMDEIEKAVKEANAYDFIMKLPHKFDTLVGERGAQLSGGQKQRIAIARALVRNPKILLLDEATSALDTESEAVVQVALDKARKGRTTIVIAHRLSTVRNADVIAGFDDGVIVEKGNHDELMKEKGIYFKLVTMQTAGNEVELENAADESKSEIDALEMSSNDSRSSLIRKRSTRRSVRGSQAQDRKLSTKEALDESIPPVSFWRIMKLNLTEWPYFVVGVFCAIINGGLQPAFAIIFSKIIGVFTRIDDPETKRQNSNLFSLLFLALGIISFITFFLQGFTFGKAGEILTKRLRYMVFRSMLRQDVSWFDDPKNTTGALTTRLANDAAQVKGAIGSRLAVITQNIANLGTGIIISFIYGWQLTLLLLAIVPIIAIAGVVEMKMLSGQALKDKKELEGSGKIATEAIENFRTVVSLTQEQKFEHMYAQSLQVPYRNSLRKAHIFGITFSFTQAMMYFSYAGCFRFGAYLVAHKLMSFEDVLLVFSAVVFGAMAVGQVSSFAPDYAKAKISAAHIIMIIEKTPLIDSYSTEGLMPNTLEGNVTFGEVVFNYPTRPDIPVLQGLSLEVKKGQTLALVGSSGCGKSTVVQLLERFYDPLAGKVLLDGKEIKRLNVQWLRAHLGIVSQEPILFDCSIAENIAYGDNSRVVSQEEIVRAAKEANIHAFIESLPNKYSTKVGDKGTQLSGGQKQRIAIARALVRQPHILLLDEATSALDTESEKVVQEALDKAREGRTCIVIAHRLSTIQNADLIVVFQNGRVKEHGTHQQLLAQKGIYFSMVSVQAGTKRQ

Structure (SMILES): COc1cc2ncnc(Nc3ccc(F)c(Cl)c3)c2cc1OCCCN1CCOCC1 [gefitinib]
- viability (H1650 cells): 52 ± 8%
- concentration at 4 h (in vivo): 32 ± 6 nM
- viability (H1975 cells [1]): 61 ± 5%
- apoptotic cell population (H820 cells [2]): 7.9 ± 1.6%
- viability (H820 cells [3]): 66 ± 8%
- apoptotic cell population (A549 cells): 7.6 ± 0.9%
- apoptotic cell population (H1975 cells [4]): 8.9 ± 1.3%

Structure (SMILES): C/C=C/C[C@@H](C)C(=O)[C@H]1C(=O)N[C@@H](C(C)C)C(=O)N(C)CC(=O)N(C)[C@@H](CC(C)C)C(=O)N[C@@H](C(C)C)C(=O)N(C)[C@@H](CC(C)C)C(=O)N[C@@H](C)C(=O)N[C@H](C)C(=O)N(C)[C@@H](CC(C)C)C(=O)N(C)[C@@H](CC(C)C)C(=O)N(C)[C@@H](C(C)C)C(=O)N1C [PSC833]
- efflux of rhodamine 123 (ABCB1 substrate) (ABCB1): potently inhibited the efflux

Structure (SMILES): C(=C\c1ccccc1)/CN1CCN(C(c2ccccc2)c2ccccc2)CC1 [cinnarizine]
- fold increase in histone H3 acetylation (AcH3) over the vehicle control [5]: 15 ± 3 fold

Structure (SMILES): Nc1nc(N)c2nc(-c3ccccc3)c(N)nc2n1 [triamterene]
- fold increase in histone H3 acetylation (AcH3) over the vehicle control [5]: 75 ± 6 fold

Structure (SMILES): O=C(CCCCCCC(=O)Nc1ccccc1)NO [SAHA, Vorinostat]
- Bim expression (Bim (BCL2L11)): significantly increase
- elimination half-life [6]: ~2 h
- p27^Kip1 expression (p27^Kip1 (CDKN1B)): significantly increase

Structure (SMILES): COc1ccc2c3c([nH]c2c1)[C@H](C=C(C)C)N1C(=O)[C@@H]2CCCN2C(=O)[C@@H]1C3 [FTC]
- efflux of pheophorbide A (ABCG2 substrate) (ABCG2): potently inhibited the efflux
